For assay [1], the target named is T1, casein kinase 2 α′ subunit (CK2α′) (Homo sapiens, UniProt P19784, R173A).
T1 construct: gene CSNK2A2
T1 sequence (P19784 1-350 R173A): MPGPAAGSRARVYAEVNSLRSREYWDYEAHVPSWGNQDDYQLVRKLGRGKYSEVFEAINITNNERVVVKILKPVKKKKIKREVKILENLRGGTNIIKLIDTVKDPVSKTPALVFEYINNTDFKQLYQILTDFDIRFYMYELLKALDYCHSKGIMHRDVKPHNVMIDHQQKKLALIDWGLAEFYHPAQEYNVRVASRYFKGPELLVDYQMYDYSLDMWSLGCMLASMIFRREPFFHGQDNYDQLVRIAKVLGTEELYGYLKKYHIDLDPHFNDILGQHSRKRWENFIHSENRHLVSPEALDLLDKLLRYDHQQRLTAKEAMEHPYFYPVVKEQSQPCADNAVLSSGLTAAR
In words: ITC. The format is binding.

In assay [2] the target is T2, casein kinase 2 α′ subunit (CK2α′) (Homo sapiens, UniProt P19784).
T2 construct: gene CSNK2A2; human recombinant CK2α′ protein
T2 sequence (P19784 whole entry): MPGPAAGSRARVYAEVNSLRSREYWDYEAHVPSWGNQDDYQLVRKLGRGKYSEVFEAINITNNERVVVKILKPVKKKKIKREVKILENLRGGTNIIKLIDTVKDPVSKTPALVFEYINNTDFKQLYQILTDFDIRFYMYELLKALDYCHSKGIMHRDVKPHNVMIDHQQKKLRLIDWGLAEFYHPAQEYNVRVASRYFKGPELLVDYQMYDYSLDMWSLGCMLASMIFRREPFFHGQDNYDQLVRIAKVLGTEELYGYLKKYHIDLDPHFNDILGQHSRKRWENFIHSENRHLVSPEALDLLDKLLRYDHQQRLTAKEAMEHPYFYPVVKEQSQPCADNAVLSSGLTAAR
In words: ITC ([…]); also SPR KD […], NanoDSF, CETSA, DARTS, pulldown, LC–MS/MS of covalently modified peptide. The format is binding.

In publication PMC7893052, “Small molecule induces mitochondrial fusion for neuroprotection via targeting CK2 without affecting its conventional kinase activity” (Signal Transduction and Targeted Therapy, 2021) one finds Kd data, which are given here for one molecule.

pKd: −log10 of the molar value.

By pKd is commonly meant the negative decadic logarithm of the Kd, by convention in mol/L.

With `C[C@@H]1O[C@@H](O[C@@H]2[C@@H](O)[C@H](OCCc3ccc(O)c(O)c3)O[C@H](CO[C@@H]3O[C@H](CO)[C@@H](O)[C@H](O)[C@H]3O)[C@H]2OC(=O)/C=C/c2ccc(O)c(O)c2)[C@H](O)[C@H](O)[C@H]1O` [ECH, echinacoside], the pKd in assay [1] was 6.38; in assay [2], 5.97.
